Measurements from patent US12121500B2, “Inhibitors of Bunyaviridae and uses thereof” (priority 2020, dated 2024).
In brackets after ≈: the same amount, converted by molar mass. Like-named read-outs stand apart in the source and are kept apart here.

How the values were obtained:
[1] = Quantitative cytotoxicity in Vero cells, crystal violet staining of EC50 plates; settings: African green monkey
RVFV [2] = assay: microbe, parasite or virus in culture; assay type: cell-based, Rift Valley Fever Virus
Staphylococcus spp. = assay: Inhibition of Staphylococcus spp. growth, broth microdilution; assay type: cell-based, S. saprophyticus or S. aureus; settings: 16-24 hours, Mueller-Hinton broth, — = no measurable MIC80; for MIC80: Staphylococcus
[3] = Cytotoxicity in HepDES19 cells, MTS assay; settings: human, HepDES19 cells (HepG2-derived hepatoblastoma cell line)
human ribonuclease H1 = molecular target: T1, human ribonuclease H1 (Homo sapiens, UniProt O60930); assay: biochemical; assay type: biochemical
T1 construct: made in house; host or cells: E. coli
T1 sequence (O60930 1-286): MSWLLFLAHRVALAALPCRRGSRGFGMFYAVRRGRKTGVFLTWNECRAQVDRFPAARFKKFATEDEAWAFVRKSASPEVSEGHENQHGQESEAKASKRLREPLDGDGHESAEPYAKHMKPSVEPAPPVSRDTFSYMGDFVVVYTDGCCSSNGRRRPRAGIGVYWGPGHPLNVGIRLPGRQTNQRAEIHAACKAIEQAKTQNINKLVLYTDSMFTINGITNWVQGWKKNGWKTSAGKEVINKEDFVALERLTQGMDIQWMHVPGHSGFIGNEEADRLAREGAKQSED

C. neoformans = assay: Inhibition of C. neoformans growth, limiting dilution assay; assay type: cell-based, Cryptococcus neoformans; settings: 48 hours at 35° C., YNB-02; for MIC80: Cryptococcus neoformans, read-out: C. neoformans (MIC80)
Escherichia coli = assay: Inhibition of Escherichia coli growth, broth microdilution; assay type: cell-based; settings: 16-24 hours, Mueller-Hinton broth, — = inactive; for MIC80: Escherichia coli, read-out: E. coli (MIC80)
RVFV strain MP12 = assay: microbe, parasite or virus in culture; assay type: cell-based, Rift Valley Fever Virus; settings: for EC50: read-out: Estimated EC50
in vitro [4] = settings: human
in vitro [5] = settings: African green monkey
RVFV [6] = assay: microbe, parasite or virus in culture; assay type: cell-based, Rift Valley Fever Virus; remark: listed apart in the source
Vero cells [7] = assay: Quantitative cytotoxicity in Vero cells, crystal violet staining of EC50 plates; settings: read-out: CC50 Vero, 1 day of compound exposure, crystal violet, * marks limit values
HepDES19 = assay: Cytotoxicity in HepDES19 cells, MTS assay; settings: read-out: CC50 HepDES19; HepDES19 cells, 3 days, MTS; * marks limit value
Vero cells [8] = tested on: Vero cells
[9] = Rift Valley fever virus, Vero, 24 h, read-out: RVFV (EC50, μM)
[10] = Rift Valley fever virus, A549, 24 h

Row | SMILES | CC50 at 1 day [1] [µM] | EC50 (RVFV [2]; [9]) [µM] | Staphylococcus spp. (MIC80, μM) (Staphylococcus spp.) | IC50 (human ribonuclease H1) [µM] | MIC80 (C. neoformans) [µM] | MIC80 (Staphylococcus spp.) [µM] | EC50 (RVFV strain MP12; Rift Valley fever virus, Vero) [µM] | CC50 (in vitro [5]) [µM] | IC50 (human ribonuclease H1; read-out: Human RNaseH1 (IC50)) [µM] | MIC80 (Escherichia coli) [µM] | EC50 (RVFV [2]; read-out: RVFV (EC50)) [µM] | CC50 (HepDES19) [µM] | further results
1 | Cc1cc(O)c(=O)c(O)cc1C(=O)c1ccc(-c2ccncc2)cc1 [Compound 260] | > 250 | 31.6 | poorly active or inactive | 277 | 50 (≈ 16.7 µg/mL) | – | – | – | – | – | – | – | CC50 at 3 days [3]: 45 µM; Human RNaseH1 (IC50, μM) (human ribonuclease H1): poorly active or inactive; E. coli (MIC80, μM) (Escherichia coli): poorly active or inactive
2 | Cc1cc(O)c(=O)c(O)cc1C(=O)c1cccs1 [Compound 308] | 217 | 0.54 | – | – | 11 (≈ 2.89 µg/mL) | 44 (≈ 11.5 µg/mL) | 2 | 111 | 46 | 25 (≈ 6.56 µg/mL) | – | – | CC50 (in vitro [4]): 119 µM; EC50 (RVFV [6]; [10]): 8.36 µM; EC50 (RVFV [6]; Rift Valley fever virus, A549, 24 h, read-out: EC50 in A549 cells): 8.4 µM
3 | Cc1cc(O)c(=O)c(O)cc1C(=O)c1ccccc1O [Compound 311] | > 250 | 11.6 | – | 26 | 15 (≈ 4.08 µg/mL) | 67 (≈ 18.2 µg/mL) | 3 | 115 | – | 30 (≈ 8.17 µg/mL) | – | – | –
4 | Cc1ccc(/C=C/C(=O)c2ccccc(=O)c2O)cc1 [Compound 340] | – | – | – | – | – | – | – | – | > 500 | – | 27.3 | 18.7 | CC50 (Vero cells [7]): 70 µM; EC50 (RVFV strain MP12): 3 µM; C. neoformans (MIC80, μM) (C. neoformans): 49 µM
5 | Cc1cc(O)c(=O)c(O)cc1C(=O)c1cccc(Br)c1 [Compound 359] | 170 | 5.1 | – | – | 24 (≈ 8.04 µg/mL) | – | 4 | – | – | – | – | 19.4 | –
6 | Cc1cc(O)c(=O)c(O)c(O)c1C(=O)c1ccc(-c2ccccc2)cc1 [Compound 362] | 77.8 | 2.6 | – | – | 24 (≈ 8.36 µg/mL) | – | 6 | – | 212 | – | – | 5.4 | E. coli (MIC80, μM) (Escherichia coli): inactive
7 | Cc1cc(O)c(=O)c(O)cc1C(=O)NCc1ccccc1 [Compound 388] | 239 | 9 | – | 166 | 11 (≈ 3.14 µg/mL) | 67 (≈ 19.1 µg/mL) | 19 | – | – | 67 (≈ 19.1 µg/mL) | – | – | activity against RVFV in the primary screen, in words (RVFV strain MP12): active; CC50 at 3 days [3]: 19.8 µM
8 | Cc1cc(O)c(=O)c(O)cc1C(=O)Nc1ccccc1 [Compound 389] | > 250 | 8.8 | good to moderate activity | 309 | 3.5 (≈ 0.949 µg/mL) | 44 (≈ 11.9 µg/mL) | 16 | – | – | 44 (≈ 11.9 µg/mL) | – | – | activity against RVFV in the primary screen, in words (RVFV strain MP12): active; CC50 at 3 days [3]: 26.5 µM; Human RNaseH1 (IC50, μM) (human ribonuclease H1): nearly inactive; E. coli (MIC80, μM) (Escherichia coli): good to moderate activity
9 | CCc1cccc(N=C(C)c2c(C)cc(=O)n(O)c2O)c1 [Compound 518] | – | – | 67 µM | – | – | – | – | – | 436 | – | 20 | 91.4 | CC50 (Vero cells [7]): > 120 µM; CC50 (A549 cells): 16.5 µM; EC50 (RVFV strain MP12): 7 µM; EC50 (RVFV [6]; read-out: EC50): 17.2 µM; C. neoformans (MIC80, μM) (C. neoformans): 24 µM; CC50 (Vero cells [8]): ≥ 120 µM
10 | C/C(=N\c1ccc(Cl)c(Cl)c1)c1c(C)cc(O)n(O)c1=O [Compound 670] | > 120 | 14 to 20 | – | – | 69 (≈ 22.6 µg/mL) | – | 10 | ≥ 120 | 356 | – | 14 | 69 | CC50 (in vitro [4]): ≥ 120 µM; EC50 (RVFV [6]; [10]): 15.3 µM
11 | O=C(Cc1ccccc1)Sc1cccccc1=O [Compound 680] | – | – | 13 µM | – | – | – | – | – | 652 | – | > 120 | 95.6 | CC50 (Vero cells [7]): > 120 µM; CC50 (A549 cells): ≥ 120 µM; EC50 (RVFV strain MP12): 0.3 µM; EC50 (RVFV [6]; read-out: EC50): 11.6 µM; C. neoformans (MIC80, μM) (C. neoformans): 0.40 µM; E. coli (MIC80, μM) (Escherichia coli): 30 µM; CC50 (Vero cells [8]): 0.9 µM
12 | CC[C@H](C)[C@H](NC(=O)OCC1c2ccccc2-c2ccccc21)C(=O)Sc1cccccc1=O [Compound 686] | – | – | 30 µM | – | – | – | – | – | > 500 | – | > 120 | 42.6 | CC50 (Vero cells [7]): > 120 µM; CC50 (A549 cells): 67.6 µM; EC50 (RVFV strain MP12): 2 µM; EC50 (RVFV [6]; read-out: EC50): 7.87 µM; C. neoformans (MIC80, μM) (C. neoformans): 0.85 µM; CC50 (Vero cells [8]): ≥ 120 µM
13 | CCCCSc1ccc(SCCCC)c(O)c(=O)c1O [Compound 694] | 22.1 | 3.7 | – | > 500 | 2.3 (≈ 0.723 µg/mL) | 9 (≈ 2.83 µg/mL) | 6 | ≥ 120 | – | – | – | 1.8 | –
14 | CC(C)Sc1ccc(SC(C)C)c(O)c(=O)c1O [Compound 696] | 56.5 | 6 | – | – | 1.5 (≈ 0.43 µg/mL) | 13 (≈ 3.72 µg/mL) | 12 | 118 | – | 20 (≈ 5.73 µg/mL) | – | 14.1 | –
15 | Cc1cc(O)c(=O)c(O)cc1C(=O)NC(CCC(=O)OC(C)(C)C)C(=O)OC(C)(C)C (stereo not drawn) [Compound 867] | > 120 | 8.7 | – | > 500 | 9 (≈ 3.94 µg/mL) | – | 7 | ≥ 120 | – | – | – | 5.2 | CC50 (in vitro [4]): ≥ 120 µM; EC50 (RVFV [6]; [10]): 33 µM
16 | Cc1cc(O)c(=O)c(O)cc1C(=O)N1CCN(C(c2ccc(F)cc2)c2ccc(F)cc2)CC1 [Compound 1017] | 54.7 | 8 | – | – | 6 (≈ 2.8 µg/mL) | – | 3 | ≥ 120 | – | – | – | 3.9 | –
